Experimental data taken from patent US12357536B2, “Containers with selective dissolved gas content” (BAXTER INTERNATIONAL INC., priority 2021, dated 2025).

Legend:
[1] = Stability of a trace element mix in glass bottle, 6 months at 5° C. or 40° C. (Table V); settings: for Concentration recovered, T6M 5° C. / Percentage of the recovered TE, T6M 5° C. / Concentration recovered, T6M 40° C. / Percentage of the recovered TE, T6M 40° C.: TE mix, pH 2.2, 200 mM malic acid, glass bottle (about 3 ppm DO), heat sterilized; for Concentration recovered, T6M 5° C. / Percentage of the recovered TE, T6M 5° C.: 6 months at 5° C.; for Percentage of the recovered TE, T6M 5° C. / Percentage of the recovered TE, T6M 40° C.: vs theoretical concentration; for Concentration recovered, T6M 40° C. / Percentage of the recovered TE, T6M 40° C.: 6 months at 40° C.
Experimental: The solution was heat sterilized and stored 6 months at 40° C. or 5° C.(T6M 40° C. and T6M 5° C., respectively).

[2] = Regression between Se assay and log dissolved oxygen (Example 7, FIG. 13); type: physicochemical; settings: fitted line Se dosage vs log oxygen content; sterilized samples stored at 40° C.
Experimental: The impact of oxygen seems of major importance in the stability of Selenite. […] To confirm this hypothesis, a regression test was performed between Se assay results and log(dissolved oxygen results). Only sterilized samples stored at 40° C. were considered as the sterilization and storage at high temperature seem to both increase the Se degradation.
Dissolved oxygen content is so the most impacting parameter and CQA (Critical Quality Attribute) in the stability of Selenium. As shown in the Figure, low oxygen amounts of around 0.5 ppm can be sufficient to ensure the stability of Selenite in solution, no saturation would be required.

Structure (SMILES)	Concentration recovered, T6M 5° C. [1]	Percentage of the recovered TE, T6M 5° C. [1]	Concentration recovered, T6M 40° C. [1]	Percentage of the recovered TE, T6M 40° C. [1]	Stability of selenite ([1]; in the presence of few ppm of dissolved oxygen)	Oxygen amount sufficient to ensure the stability of Selenite in solution [2]
[Cr] [Cr, chromium]	306 ng/mL	77.3%	329 ng/mL	83.1%		
[Zn] [Zn, zinc]	158347 ng/mL	77.8%	171822 ng/mL	84.4%		
F [F, fluoride]		94%		88%		
[Cu] [Cu, copper]	9784 ng/mL	81.1%	10504 ng/mL	87.1%		
[Mo] [Mo, molybdenum]	653 ng/mL	79.9%	707 ng/mL	86.6%		
[Se] [Se, selenium]	2446 ng/mL	87.2%	2461 ng/mL	87.7%		
I [I, iodide]	3167 ng/mL	78.6%	3401 ng/mL	84.4%		
O=[Se](O)O [selenite, sodium selenite]					stable	around 0.5 ppm
